The target in assay [1] is T1, JAK1-JH2 protein (aa 561-860, in-house) (Homo sapiens, UniProt P23458).
T1 construct: JAK1-JH2 protein (aa 561-860, in-house); made in house
In words: JAK1-JH2 biochemical assay (HTRF, blocking of JAK1-JH2 protein with its probe). Type of assay: binding. As to conditions: 1.17 nM recombinant JAK1-JH2, Probe 2. On the procedure: Assay B: JAK1-JH2 Biochemical Assay
Compounds disclosed herein were tested for blocking of JAK1-JH2 protein (aa 561-860, in-house) with its probe in an assay based on Homogeneous Time Resolved Fluorescence. Compound dilution is done according to the following protocol: (1) Prepare 500× compounds solution in DMSO from 500 uM by 5-fold dilution, total 10 doses were included; (2) Prepare 10× compounds solution in an assay buffer containing 20 mM HEPES, pH 7.5, 10 mM MgCl2, 0.005% BSA, 2 mM DTT, 0.015% Brij-35 by transferring 1 μl serial 500× stock solution into 49 μl assay buffer. 4 μL of 1.17 nM recombinant JAK1-JH2 protein was pre-incubated with 1 μl of 10×serial dilution of compounds at room temperature for 0.5 hour. […] The HTRF signals (ex337 nm, em620 nm/665 nm) were read on BMG PHERAstar FS instrument. The inhibition percentage of JAK1 interaction with its probe in presence of increasing concentrations of compounds was calculated based on the ratio of fluorescence at 615 nm to that at 665 nm. The IC50 for each compound was derived from fitting the data to the four-parameter logistic equation by Dotmatics.
Background: TR-FRET usually uses a lanthanide donor and a delayed reading to cut background.

The target in assay [2] is T2, TYK2-JH2 (aa 575-869, in-house) protein (Homo sapiens, UniProt P29597).
T2 construct: TYK2-JH2 (aa 575-869, in-house) protein; made in house
T2 sequence (P29597 575-869): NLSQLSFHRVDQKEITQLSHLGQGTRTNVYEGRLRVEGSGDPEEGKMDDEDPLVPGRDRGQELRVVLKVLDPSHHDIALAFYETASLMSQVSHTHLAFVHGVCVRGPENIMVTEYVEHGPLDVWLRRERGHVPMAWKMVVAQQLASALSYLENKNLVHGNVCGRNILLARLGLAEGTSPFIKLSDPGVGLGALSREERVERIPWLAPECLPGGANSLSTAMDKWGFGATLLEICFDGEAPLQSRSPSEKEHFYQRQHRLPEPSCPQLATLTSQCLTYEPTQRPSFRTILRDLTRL
Briefly: TYK2-JH2 biochemical assay (HTRF, blocking of TYK2-JH2 protein with its probe). As to conditions: for IC50: HTRF, 0.2 nM recombinant TYK2-JH2, Probe 1; for Biochemical assay Selectivity fold (TYK2/JAK1): TYK2-JH2 vs JAK1-JH2 biochemical IC50. In kind it is binding. The procedure: Assay A: TYK2-JH2 Biochemical Assay
Compounds disclosed herein were tested for blocking of TYK2-JH2 (aa 575-869, in-house) protein with its probe in an assay based on Homogeneous Time Resolved Fluorescence.
Compound dilution is done according to the following protocol: (1) Prepare 500× compounds solution in DMSO from 500 uM by 5-fold dilution, total 10 doses were included; (2) Prepare 10× compounds solution in an assay buffer containing 20 mM HEPES, pH 7.5, 10 mM MgCl2, 0.005% BSA, 2 mM DTT, 0.015% Brij-35 by transferring 1 μl serial 500× stock solution into 49 μl assay buffer. 4 μl of 0.2 nM recombinant TYK2-JH2 protein was pre-incubated with 1 μl of 10×serial dilution of compounds at room temperature for 0.5 hour. Then 5 μl of 10 nM in-house Probe 1 (6-((3,5-dimethylphenyl)amino)-8-((4,26-dioxo-30-((3aS,4S,6aR)-2-oxohexahydro-1H-thieno[3,4-d]imidazol-4-yl)-7,10,13,16,19,22-hexaoxa-3,25-diazatriacontyl)amino)imidazo[1,2-b]pyridazine-3-carboxamide, KD=10 nM), 5 μl Mab Anti-6His Tb cryptate Gold (Cat: 61HI2TLB, Cisbio Bioassays) and Streptavidin-XL665(Cat: 610SAXLB, Cisobio Bioassays) mixture were added to plate and further incubated at room temperature for 1 hour. The HTRF signals (ex337 nm, em620 nm/665 nm) were read on BMG PHERAstar FS instrument. The inhibition percentage of TYK2 interaction with its probe in presence of increasing concentrations of compounds was calculated based on the ratio of fluorescence at […]. The IC50 for each compound was derived from fitting the data to the four-parameter logistic equation by Dotmatics.

Assay [3] relates to JAK2, TYK2/p-STAT4 (Tyr693) activated by IL-12 in NK-92 cell line. Briefly: IL-12-JAK2, TYK2/p-STAT4 (Tyr693) inhibition cellular assay. Type of assay: cell-based. As to conditions: for IC50: NK92, 0.5 h, NK-92 cells, IL-12 40 ng/ml, 30 min, read-out: Cellular assay pSTAT4/IL-12 IC50; for Cellular assay Selectivity fold (TYK2/JAK1): pSTAT4/IL-12 vs pSTAT3/IL-6 cellular IC50. An excerpt:
Assay C: IL-12-JAK2, TYK2/p-STAT4 (Tyr693) Inhibition IC50 Cellular Assay
To evaluate the inhibition effect of compounds disclosed herein on JAK2, TYK2/p-STAT4 (Tyr693) activated by IL-12 in NK-92 cell line, NK-92 cells were collected and washed 3 times by DPBS and resuspended in MEM-α(GIBCO,Cat #12561056) with 10% FBS (Gibco, Cat #10099, Lot #1891605), without IL-2 (R&D systems,Cat #202-IL), starved overnight. Cells were collected and resuspended in 1640 medium (phenol red free, Gibco, Cat #11835-030) with 0.1% BSA, and 12.5 μl/5×10^4/well cell suspension were seeded to the 96-well plate (Corning, Cat #3799). Then cells were treated with compounds diluted in 0.2% DMSO 1640 medium, at 37° C., 1 h. Dilution is done according to the following protocol: (1) make 500× compounds solution in DMSO from 5 mM by 4-fold dilution, total 8 doses were included; (3) make 2× compounds solution in assay medium by transferring 0.5 μl serial 500× stock solution into 125 μl assay medium; (4) 15 μl of 2× serial solution is added to cells and incubate at 37° C. for 1 h, the final compound conc. is 10000,2500,625,156.25,39,9.8,2.4 and 0.61 nM, respectively. After 1 h, cells were treated with 2.5 μl medium containing IL-12 at 37° C. (R&D systems, Cat #219-IL-005, final conc.40 ng/ml), 30 min. Following cells were lysed with 7.5 μl lysis buffer at RT, shaking on shaker for 1 h. 10 μL of cell lysate were transferred to a PE 384-well Proxiplate detection plate, and 5 μL of pre-mixed Alphascreen beads were added to each well. Covered the plate with a plate sealer, span 1000 rpm for 1 min, mix, Incubated overnight at room temperature. Read on BMG PheraStar with Alphascreen protocol. IC 50 values were calculated by fitting dependent data to the four-parameter logistic model using dotmatics software. The assay was performed by using AlphaLISA SureFire Ultra p-STAT4 (Tyr693) Assay Kit—High Volume (PE, Cat #ALSU-PST4-A-HV).

Assay [4] relates to JAK1/p-STAT3(Tyr705) activated by IL-6 in TF-1 cell line. In words: IL-6-JAK1/p-STAT3(Tyr705) inhibition cellular assay. As to conditions: Homo sapiens, 0.5 h; TF-1 cells, IL-6 50 ng/ml, 30 min; read-out: Cellular assay pSTAT3/IL-6 IC50. In kind it is cell-based. An excerpt: Assay D: IL-6-JAK1/p-STAT3(Tyr705) Inhibition IC50 Cellular Assay
To evaluate the inhibition effect of compounds disclosed herein on JAK1/p-STAT3(Tyr705) activated by IL-6 in TF-1 cell line, TF-1 cells were collected and washed 3 times by DPBS and resuspended in RPMI-1640 (phenol red free, Gibco, Cat #11835-030) with 0.1% FBS (Gibco, Cat #10099, Lot #1891605), without GM-CSF(R&D systems,Cat #215-GM-050), starved overnight. Cells were collected and resuspended in 1640 medium (phenol red free, Gibco, Cat #11835-030) with 0.1% BSA, and 12.5 μl/10×10^4/well cell suspension were seeded to the 96-well plate (Corning, Cat #3799). Then cells were treated with compounds diluted in 0.2% DMSO 1640 medium, at 37° C., 1 h. Dilution is done according to the following protocol: (1) make 500× compounds solution in DMSO from 5 mM by 4-fold dilution, total 8 doses were included; (3) make 2× compounds solution in assay medium by transferring 0.5 μl serial 500× stock solution into 125 μl assay medium; (4) 15 μl of 2× solution is added to cells and incubate at 37° C. for 1 h, the final compound conc. is 10000,2500,625,156.25,39,9.8,2.4 and 0.61 nM, respectively. After 1 h, cells were treated with 2.5 μl medium containing IL-6 at 37° C. (R&D systems, Cat #206-IL-010, final conc.50 ng/ml), 30 min. Following cells were lysed with 10 μl lysis buffer at RT, shaking on shaker for 1 h. 16 μL of cell lysate were transferred to a PE 384-well HTRF detection plate, and 4 μL of pre-mixed HTRF antibodies were added to each well. Covered the plate with a plate sealer, span 1000 rpm for 1 min, mix, Incubated overnight at room temperature. Read on BMG PheraStar with HTRF protocol (337 nm-665 nm-620 nm). IC 50 values were calculated by fitting dependent data to the four-parameter logistic model using dotmatics software. The assay was performed by using HTRF Phospho-STAT3(Tyr705) Cellular Assay Kit (Cisbio, Cat #62AT3PEG).

This note sets out measurements from US12606556B2, “TYK-2 inhibitor” (BEIGENE, LTD., priority 2020, dated 2026).

T1 sequence (P23458 561-860): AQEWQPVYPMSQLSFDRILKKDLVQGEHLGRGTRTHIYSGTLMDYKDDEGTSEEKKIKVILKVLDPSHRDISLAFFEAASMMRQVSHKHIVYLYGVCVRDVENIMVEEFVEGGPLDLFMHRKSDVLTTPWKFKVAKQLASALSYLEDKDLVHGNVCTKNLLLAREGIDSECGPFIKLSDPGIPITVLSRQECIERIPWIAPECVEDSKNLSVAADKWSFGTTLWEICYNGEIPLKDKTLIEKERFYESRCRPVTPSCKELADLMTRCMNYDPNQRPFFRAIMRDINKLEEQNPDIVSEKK

`CNC(=O)c1nnc(NC(=O)C2CC2)cc1Nc1nc2ccc(N3CC(F)(F)C3)cn2n1` [Example E10, 6-(cyclopropanecar-boxamido)-4-((6-(3,3-difluoroazetidin-1-yl)-[1,2,4]triazolo[1,5-a]pyridin-2-yl)amino)-N-methylpyridazine-3-carboxamide]: the IC50 in assay [1] is 3 nM; in assay [2], 0.15 nM; in assay [3], 47 nM; in assay [4], greater than 10000 nM. Further, the “Biochemical assay Selectivity fold (TYK2/JAK1)” value in assay [2] is 20 fold. Further, in assay [3], the “Cellular assay Selectivity fold (TYK2/JAK1)” value is on record as greater than 212 fold.
In the case of `CNC(=O)c1nnc(NC(=O)C2CC2)cc1Nc1nc2ccc(N3CCC3CO)cn2n1` (stereo not drawn) [Example J2, 6-(cyclopro-panecar-boxamido)-4-((6-(2-(hydroxy-methyl)azetidin-1-yl)-[1,2,4]triazolo[1,5-a]pyridin-2-yl)amino)-N-methyl-pyridazine-3-carboxamide], the IC50 in assay [1] came out at 1.3 nM; in assay [2] it was 0.053 nM; in assay [3], 14.9 nM; in assay [4], 4360 nM. Besides, the “Biochemical assay Selectivity fold (TYK2/JAK1)” value in assay [2] worked out at 25 fold. The “Cellular assay Selectivity fold (TYK2/JAK1)” value in assay [3] is 292 fold.
In the case of `CNC(=O)c1nnc(NC(=O)C2CC2)cc1Nc1nc2ccccc2n1C` [Example A2, 6-(cyclopropanecarboxamido)-N-methyl-4-((1-methyl-1H-benzo[d]imidazol-2-yl)amino) pyridazine-3-carboxamide], the IC50 in assay [1] stood at 174 nM; in assay [2], 34 nM. Further, in assay [2], the “Biochemical assay Selectivity fold (TYK2/JAK1)” value amounted to 5 fold.
For `CNC(=O)c1nnc(NC(=O)C2CC2)cc1Nc1nc2ccc(N3CCC(N4CCC4)CC3)cn2n1` [Example E11, 4-((6-(4-(azetidin-1-yl)piperidin-1-yl)-[1,2,4]triazolo[1,5-a]pyridin-2-yl)amino)-6-(cyclopropanecarbox-amido)-N-methyl-pyridazine-3-carboxamide], in that order: 5.8 nM, 0.18 nM and 32 fold.
On the same counts, the results for `CNC(=O)c1nnc(NC(=O)C2CC2)cc1Nc1nc2ccccc2[nH]1` [Example A3, 4-((1H-benzo [d]imidazol-2-yl)amino)-6-(cyclopropane-carboxamido)-N-methyl-pyridazine-3-carboxamide] are 3.7 nM, 1.4 nM and 2.6 fold.
For `CNC(=O)c1nnc(NC(=O)C2CC2)cc1Nc1nc2ccccc2o1` [Example A1, 4-(benzo[d]oxazol-2-ylamino)-6-(cyclopropanecarboxamido)-N-methylpyridazine-3-carboxamide], in that order: greater than 10000 nM, 456 nM and greater than 22 fold.
Take `CNC(=O)c1nnc(NC(=O)C2CC2)cc1Nc1nc2ccc(OC3CN(C(=O)OC(C)(C)C)C3)cn2n1` [Example C1, tert-butyl 3-((2-((6-(cyclopropanecarboxamido)-3-(methylcarbamoyl)pyridazin-4-yl)amino)-[1,2,4]triazolo[1,5-a]pyridin-6-yl)oxy)azetidine-1-carboxylate]: in assay [1], the IC50 amounted to 1.3 nM. In assay [2], the IC50 came out at 0.1 nM and the “Biochemical assay Selectivity fold (TYK2/JAK1)” value is 13 fold.
On the same counts, the results for `CNC(=O)c1nnc(NC(=O)C2CC2)cc1Nc1nc2ccc(OC3CNC3)cn2n1` [Example C2, 4-((6-(azetidin-3-yloxy)-[1,2,4]triazolo[1,5-a]pyridin-2-yl)amino)-6-(cyclopropanecarboxamido)-N-methylpyridazine-3-carboxamide] are 1.2 nM, 0.14 nM and 9 fold.
